Laboratory results from patent US20090312349A1, “ANTI-INFLAMMATORY MEDICAMENTS” (priority 2004, published 2009).

Key:
Abl kinase [1] = target: T1, Abl kinase (Homo sapiens, UniProt P00519); test: Abl kinase assay A2; format: biochemical; details: for IC50: Method A2, 2 h pre-incubation, 0.5 mM ATP
T1 sequence (P00519 229-512): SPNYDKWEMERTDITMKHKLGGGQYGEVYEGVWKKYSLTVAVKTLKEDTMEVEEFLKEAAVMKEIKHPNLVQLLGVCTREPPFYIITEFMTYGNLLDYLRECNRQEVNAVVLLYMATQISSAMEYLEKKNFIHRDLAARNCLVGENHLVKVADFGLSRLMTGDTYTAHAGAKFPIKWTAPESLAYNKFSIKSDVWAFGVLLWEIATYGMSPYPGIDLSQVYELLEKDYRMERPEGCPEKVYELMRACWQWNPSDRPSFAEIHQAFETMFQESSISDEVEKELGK
Protocol: (§1) IC50 values were calculated from a series of percent inhibition values determined at a range of inhibitor concentrations using software routines as implemented in the GraphPad Prism software package.

B-Raf(V599E) kinase = B-Raf(V599E) kinase (Homo sapiens, UniProt P15056, V600E); test: B-Raf(V599E) kinase assay B1; format: biochemical; details: for IC50: Method B1, construct 1
Protocol: The test compounds were incubated with the reaction mixture at 30° C. for 2 h. […] The reaction rate was calculated using the 1.5 h to 2.5 h time frame. […] IC50 values were calculated from a series of percent inhibition values determined at a range of inhibitor concentrations using software routines as implemented in the GraphPad Prism software package.

[2] = target: phosphorylated p-38-alpha kinase (Homo sapiens, UniProt Q16539); test: P-38 alpha kinase assay P1; format: biochemical; details: Method P1; for IC50: 2 h pre-incubation before ATP
KDR kinase [3] = target: T2, KDR kinase (Homo sapiens, UniProt P35968, DEL940-989/E990V); test: KDR kinase assay K1; format: biochemical; details: for IC50: Method K1; for inhibition at 10 µM: read-out: Results, % @ concentration μM, Method K1
Protocol: as §1

Abl kinase [4] = target: T1, Abl kinase; test: Abl kinase assay A1; format: biochemical; details: for IC50: Method A1, read-out: Results, μM (IC50); for inhibition at 10 µM: read-out: Results, % @ concentration μM, Method A1
Protocol: as §1

[5] = target: T3, phospho p-38 alpha kinase (Homo sapiens, UniProt Q16539); test: P-38 alpha kinase assay (spectrophotometric, pyruvate kinase/lactate dehydrogenase coupled); format: biochemical; details: Table 5; for IC50: assay not named, read-out: uM
T3 construct: purchased Panvera

KDR kinase [6] = target: T2, KDR kinase; test: KDR kinase assay K2; details: for inhibition at 1 µM: read-out: Results, % @ concentration μM
[7] = read-out: Results, % @ concentration μM

B-Raf(V599E) kinase, sequence (P15056 with tags, fused parts or gaps V600E): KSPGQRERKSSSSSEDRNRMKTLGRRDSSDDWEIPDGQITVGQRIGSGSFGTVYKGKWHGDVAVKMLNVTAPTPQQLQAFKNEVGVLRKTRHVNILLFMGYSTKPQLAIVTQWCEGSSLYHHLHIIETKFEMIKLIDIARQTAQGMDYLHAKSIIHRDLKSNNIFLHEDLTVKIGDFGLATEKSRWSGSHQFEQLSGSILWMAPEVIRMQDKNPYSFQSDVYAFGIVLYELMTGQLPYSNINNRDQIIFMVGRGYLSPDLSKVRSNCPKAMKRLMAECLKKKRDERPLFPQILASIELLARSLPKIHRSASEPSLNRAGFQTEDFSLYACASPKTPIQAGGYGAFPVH
T3 sequence (Q16539 whole entry): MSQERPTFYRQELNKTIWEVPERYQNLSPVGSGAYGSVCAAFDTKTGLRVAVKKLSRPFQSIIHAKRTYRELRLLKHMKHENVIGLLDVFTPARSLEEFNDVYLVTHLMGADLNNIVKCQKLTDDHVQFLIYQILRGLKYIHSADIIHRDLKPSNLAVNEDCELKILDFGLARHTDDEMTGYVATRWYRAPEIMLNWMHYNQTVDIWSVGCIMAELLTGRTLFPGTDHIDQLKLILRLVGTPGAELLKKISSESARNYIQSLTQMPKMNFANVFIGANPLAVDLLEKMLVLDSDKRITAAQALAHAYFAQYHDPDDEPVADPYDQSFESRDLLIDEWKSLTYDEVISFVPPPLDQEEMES
T2 sequence (P35968 with tags, fused parts or gaps DEL940-989/E990V): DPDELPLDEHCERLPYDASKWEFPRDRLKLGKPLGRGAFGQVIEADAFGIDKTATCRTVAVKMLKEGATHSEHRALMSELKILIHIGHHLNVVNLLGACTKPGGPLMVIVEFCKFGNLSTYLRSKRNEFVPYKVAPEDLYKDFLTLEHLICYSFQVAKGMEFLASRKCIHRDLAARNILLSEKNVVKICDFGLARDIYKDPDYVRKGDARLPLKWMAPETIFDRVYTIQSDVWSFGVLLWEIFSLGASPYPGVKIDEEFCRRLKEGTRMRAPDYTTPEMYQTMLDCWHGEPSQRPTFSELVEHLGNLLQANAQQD
phosphorylated p-38-alpha kinase, sequence (Q16539 1-360 isoform Q16539-2): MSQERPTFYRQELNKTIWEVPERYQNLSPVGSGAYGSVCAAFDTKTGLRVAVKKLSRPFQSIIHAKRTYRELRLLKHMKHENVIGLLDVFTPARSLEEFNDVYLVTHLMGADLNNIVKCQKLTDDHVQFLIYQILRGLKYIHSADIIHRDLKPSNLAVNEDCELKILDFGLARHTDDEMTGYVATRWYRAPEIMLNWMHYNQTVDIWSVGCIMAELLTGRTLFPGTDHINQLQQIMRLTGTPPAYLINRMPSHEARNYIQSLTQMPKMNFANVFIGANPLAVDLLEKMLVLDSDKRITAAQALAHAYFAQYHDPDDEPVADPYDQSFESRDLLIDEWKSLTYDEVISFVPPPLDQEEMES

NC(=O)Cc1cccc(-n2nc(C3CCCC3)cc2NC(=O)Nc2cccc(Cl)c2Cl)c1 [Example 446, 1-(1-(3-(2-amino-2-oxoethyl)phenyl)-3-cyclopentyl-1H-pyrazol-5-yl)-3-(2,3-dichlorophenyl)urea] gave an IC50 (Abl kinase [1]) of 4.8 µM, an IC50 (B-Raf(V599E) kinase) of 0.016 µM and an IC50 [2] of 0.005 µM. It also gave an IC50 (KDR kinase [3]) of 1.5 µM.
With NC(=O)Cc1ccc(-n2nc(-c3ccccc3F)cc2NC(=O)Nc2cccc(Cl)c2Cl)cc1 [Example 466, 1-(1-(4-(2-amino-2-oxoethyl)phenyl)-3-(2-fluorophenyl)-1H-pyrazol-5-yl)-3-(2,3-dichlorophenyl)urea] the IC50 (Abl kinase [4]) was 1.2 µM, the inhibition at 1 µM (B-Raf(V599E) kinase; [7]) was 24% and the IC50 [2] was 0.038 µM. It also gave an IC50 [5] of 0.007 µM and an inhibition at 10 µM (KDR kinase [3]) of 50%.
Work on NC(=O)Cc1ccc(-n2nc(C3CCCC3)cc2NC(=O)Nc2cccc(Cl)c2Cl)cc1 [Example 467, 1-(1-(4-(2-amino-2-oxoethyl)phenyl)-3-cyclopentyl-1H-pyrazol-5-yl)-3-(2,3-dichlorophenyl)urea] yielded an IC50 (Abl kinase [4]) of 4.8 µM, an IC50 (B-Raf(V599E) kinase) of 0.032 µM and an IC50 [2] of 0.011 µM. The IC50 [5] was 0.119 µM and the IC50 (KDR kinase [3]) was 2.9 µM.
For NC(=O)Cc1cccc(-c2ccc(C(F)(F)F)cc2NC(=O)Nc2ccc(-c3cccc4c3CNC4=O)cc2)c1 [Example 483, [1,1′-biphenyl]-2′-(3-(4-(1-oxoisoindolin-4-yl)phenyl)ureido)-4′-(trifluoromethyl)-3-acetic acid amide], the IC50 (Abl kinase [4]) was 11.3 µM, the IC50 (B-Raf(V599E) kinase) was 0.014 µM and the IC50 [2] was 0.027 µM. It also gave an IC50 [5] of 0.27 µM and an IC50 (KDR kinase [3]) of 0.21 µM.
With O=C(Cc1cccc(-n2nc(C3CCCC3)cc2NC(=O)Nc2cccc(Cl)c2Cl)c1)NCC(O)CO (stereo not drawn) [Example 487, 1-(3-cyclopentyl-1-(3-(2-(2,3-dihydroxypropylamino)-2-oxoethyl)phenyl)-1H-pyrazol-5-yl)-3-(2,3-dichlorophenyl)urea] the IC50 [2] was 0.006 µM, the IC50 [5] was 0.038 µM and the inhibition at 1 µM (KDR kinase [6]) was 20%.
With CC(Cc1cccc(-n2nc(-c3ccccc3F)cc2NC(=O)Nc2cccc(Cl)c2Cl)c1)C(N)=O (stereo not drawn) [Example 489, 1-(1-(3-(3-amino-2-methyl-3-oxopropyl)phenyl)-3-(2-fluorophenyl)-1H-pyrazol-5-yl)-3-(2,3-dichlorophenyl)urea] the IC50 [5] was 0.52 µM and the inhibition at 1 µM (KDR kinase [6]) was 25%.
CC(C)(C)c1cc(NC(=O)Nc2ccc(F)c(F)c2F)n(-c2cccc(CC(N)=O)c2)n1 [Example 491, 1-(1-(3-(2-amino-2-oxoethyl)phenyl)-3-tert-butyl-1H-pyrazol-5-yl)-3-(2,3,4-trifluorophenyl)urea] was tested, and the inhibition at 10 µM (Abl kinase [1]; [7]) was 78%, the IC50 (B-Raf(V599E) kinase) was 0.007 µM and the IC50 [2] was 0.013 µM. It also gave an inhibition at 10 µM (KDR kinase [3]) of 77%.
Molecule CC(C)(C)c1cc(NC(=O)Nc2ccc(F)c(F)c2F)n(-c2ccc(CC(=O)O)cc2)n1 [Example 492, 2-(4-(3-tert-butyl-5-(3-(2,3,4-trifluorophenyl)ureido)-1H-pyrazol-1-yl)phenyl)acetic acid] has an inhibition at 10 µM (Abl kinase [4]) of 49%, an IC50 (B-Raf(V599E) kinase) of 0.028 µM and an IC50 [2] of 0.008 µM. It also gave an IC50 [5] of 0.04 µM and an inhibition at 10 µM (KDR kinase [3]) of 50%.
Work on CC(C)(C)c1cc(NC(=O)Nc2cc(F)c(F)cc2F)n(-c2cccc(CC(N)=O)c2)n1 [Example 494, 1-(1-(3-(2-amino-2-oxoethyl)phenyl)-3-tert-butyl-1H-pyrazol-5-yl)-3-(2,4,5-trifluorophenyl)urea] yielded an inhibition at 10 µM (Abl kinase [4]) of 96%, an IC50 (B-Raf(V599E) kinase) of 0.007 µM and an IC50 [2] of 0.068 µM. For the same molecule, the IC50 [5] was 0.67 µM and the inhibition at 10 µM (KDR kinase [3]) was 82%.
For CC(C)(C)c1cc(NC(=O)Nc2ccc(F)cc2F)n(-c2ccc(CC(N)=O)cc2)n1 [Example 498, 1-(1-(4-(2-amino-2-oxoethyl)phenyl)-3-tert-butyl-1H-pyrazol-5-yl)-3-(2,4-difluorophenyl)urea], the inhibition at 10 µM (Abl kinase [4]) was 48%, the IC50 (B-Raf(V599E) kinase) was 0.074 µM and the IC50 [2] was 0.041 µM. For the same molecule, the “% @ concentration, uM” value ([5]; @ 1 uM) was 25% @1 and the inhibition at 10 µM (KDR kinase [3]) was 60%.
CC(C)(C)c1cc(NC(=O)Nc2ccc(F)cc2F)n(-c2cccc(C#N)c2)n1 [Example 499, 1-(3-tert-butyl-1-(3-cyanophenyl)-1H-pyrazol-5-yl)-3-(2,4-difluorophenyl)urea] gave an inhibition at 10 µM (Abl kinase [4]) of 88%, an IC50 (B-Raf(V599E) kinase) of 0.026 µM and an IC50 [2] of 0.046 µM. The “% @ concentration, uM” value ([5]; @ 0.1 uM) was 78%, the “% @ concentration, uM” value ([5]; @ 1 uM) was 95% and the IC50 (KDR kinase [3]) was 0.4 µM.
Work on CC(C)(C)c1cc(NC(=O)Nc2cccc(Oc3cccnc3)c2)n(-c2cccc(CC(N)=O)c2)n1 [Example 500, 1-(1-(3-(2-amino-2-oxoethyl)phenyl)-3-tert-butyl-1H-pyrazol-5-yl)-3-(3-(pyridin-3-yloxy)phenyl)urea] yielded an IC50 (Abl kinase [1]) of 0.021 µM, an IC50 (B-Raf(V599E) kinase) of 0.01 µM and an IC50 [2] of 0.017 µM. The IC50 (KDR kinase [6]) was 9 nM.
Work on NC(=O)Cc1cccc(-n2nc(-c3cccs3)cc2NC(=O)Nc2cccc(Oc3cccnc3)c2)c1 [Example 502, 1-(1-(3-(2-amino-2-oxoethyl)phenyl)-3-(thiophen-2-yl)-1H-pyrazol-5-yl)-3-(3-(pyridin-3-yloxy)phenyl)urea] yielded an IC50 (Abl kinase [4]) of 3.1 µM and an IC50 (KDR kinase [6]) of 1300 nM.
For NC(=O)Cc1cccc(-n2nc(C(F)(F)F)cc2NC(=O)Nc2cccc(Oc3cccnc3)c2)c1 [Example 503, 1-(1-(3-(2-amino-2-oxoethyl)phenyl)-3-(trifluoromethyl)-1H-pyrazol-5-yl)-3-(3-(pyridin-3-yloxy)phenyl)urea], the IC50 (Abl kinase [1]) was 0.29 µM, the IC50 (B-Raf(V599E) kinase) was 0.13 µM and the IC50 (KDR kinase [6]) was 190 nM.
In the case of CNC(=O)c1cc(Oc2ccc(NC(=O)Nc3cc(C(C)(C)C)nn3-c3cccc(CC(N)=O)c3)cc2)ccn1 [Example 506, 1-(1-(3-(2-amino-2-oxoethyl)phenyl)-3-tert-butyl-1H-pyrazol-5-yl)-3-(4-(2-(methylcarbamoyl)pyridin-4-yloxy)phenyl)urea], the IC50 (Abl kinase [1]) is reported as 0.0066 µM, the IC50 (B-Raf(V599E) kinase) is reported as 0.02 µM and the IC50 [2] is reported as 0.009 µM. It also gave an IC50 [5] of 0.042 µM and an IC50 (KDR kinase [3]) of 0.021 µM.
Work on CC(C)(C)c1cc(NC(=O)Nc2ccc(-c3cccc4c3CNC4=O)cc2)n(-c2cccc(CC(N)=O)c2)n1 [Example 510, 1-(1-(3-(2-amino-2-oxoethyl)phenyl)-3-tert-butyl-1H-pyrazol-5-yl)-3-(4-(1-oxoisoindolin-4-yl)phenyl)urea] yielded an IC50 (Abl kinase [1]) of 0.062 µM, an IC50 (B-Raf(V599E) kinase) of 0.21 µM and an IC50 [2] of 0.12 µM. It also gave an IC50 [5] of 0.47 µM and an IC50 (KDR kinase [3]) of 0.007 µM.
For C=C1NS(=O)(=O)N(Cc2cccc(-n3nc(C(C)(C)C)cc3NC(=O)Nc3cccc(Cl)c3Cl)c2)C1=O [Example 511, 1-{5-t-butyl-2-[3-(4-methylene-1,1,3-trioxo-[1,2,5]thiadiazolidin-2-ylmethyl)-phenyl]-2H-pyrazol-3-yl}-3-(2,3-dichlorophenyl)-urea], the IC50 (Abl kinase [1]) was 0.25 µM, the IC50 (B-Raf(V599E) kinase) was 1.7 µM and the IC50 [5] was 0.024 µM. It also gave an IC50 (KDR kinase [6]) of 14 nM.
With NC(=O)Cc1cccc(-n2nc(C3CCCC3)cc2NC(=O)Nc2ccc(-c3cccc4c3CNC4=O)cc2)c1 [Example 512, 1-(1-(3-(2-amino-2-oxoethyl)phenyl)-3-cyclopentyl-1H-pyrazol-5-yl)-3-(4-(1-oxoisoindolin-4-yl)phenyl)urea] the IC50 (Abl kinase [1]) was 0.11 µM, the “Results, % @ concentration μM” value ([2]; @ 1.0 μM) was 82% @1.0 and the IC50 [5] was 0.032 µM. For the same molecule, the IC50 (KDR kinase [6]) was 29 nM.
Molecule Cn1c(=O)c(-c2cccc(NC(=O)Nc3cc(C(C)(C)C)nn3-c3cccc(CC(N)=O)c3)c2)cc2cncnc21 [Example 513, 1-(1-(3-(2-amino-2-oxoethyl)phenyl)-3-tert-butyl-1H-pyrazol-5-yl)-3-(3-(8-methyl-7-oxo-7,8-dihydropyrido[2,3-d]pyrimidin-6-yl)phenyl)urea] has an IC50 (Abl kinase [1]) of 0.023 µM, an IC50 (B-Raf(V599E) kinase) of 0.008 µM and an IC50 [2] of 0.012 µM. For the same molecule, the IC50 [5] was 0.41 µM.
Cn1c(=O)c(-c2cccc(NC(=O)Nc3cc(C4CCCC4)nn3-c3cccc(CC(N)=O)c3)c2)cc2cncnc21 [Example 514, 1-(1-(3-(2-amino-2-oxoethyl)phenyl)-3-cyclopentyl-1H-pyrazol-5-yl)-3-(3-(8-methyl-7-oxo-7,8-dihydropyrido[2,3-d]pyrimidin-6-yl)phenyl)urea] showed an IC50 (Abl kinase [1]) of 0.077 µM, an IC50 [2] of 0.011 µM and an IC50 [5] of 0.57 µM. It also gave an IC50 (KDR kinase [6]) of 33 nM.
Molecule Cc1ccc(NC(=O)Nc2cc(C(C)(C)C)nn2-c2cccc(CC(N)=O)c2)cc1Nc1nccc(-c2cccnc2)n1 [Example 516, 1-(1-(3-(2-amino-2-oxoethyl)phenyl)-3-tert-butyl-1H-pyrazol-5-yl)-3-(4-methyl-3-(4-(pyridin-3-yl)pyrimidin-2-ylamino)phenyl)urea] has an IC50 (Abl kinase [1]) of 0.0018 µM, an IC50 (B-Raf(V599E) kinase) of 0.022 µM and an IC50 [5] of 0.45 µM.
